The values below come from ChEMBL document CHEMBL5032511, “Improving Druggability of Novel Diarylpyrimidine NNRTIs by a Fragment-Based Replacement Strategy: From Biphenyl-DAPYs to Heteroaromatic-Biphenyl-DAPYs” (J Med Chem, 2021).

The subject of series [1] is Human immunodeficiency virus 1. Briefly: Antiviral activity against HIV1 IIIB infected human MT4 cells assessed as protection against virus-induced cytopathic effect by MTT assay. The class given is functional, organism-based. The note with it: Human immunodeficiency virus 1, IIIB. On the technique in general: Damage to the host cells serves as the signal in cytopathic effect assays.

Series [2] is described as follows: Stability in human liver microsome assessed as binding constant at 1 uM in presence of NADPH by LC/MS/MS analysis. The note with it: microsomes.
Series [3] is described as follows: Stability in rat liver microsome assessed as binding constant at 1 uM in presence of NADPH by LC/MS/MS analysis. The conditions noted are these: microsomes.
A short description of series [4]: Selectivity index, ratio of CC50 for mock infected human MT4 cells to IC50 for HIV1 IIIB infected human MT4 cells.
The nature of series [5]: Cytotoxicity against mock infected human MT4 cells by MTT assay.
Series [6] in a line: Solubility of compound in PBS at pH 4.5 by HPLC-UV analysis. The class given is physicochemical.
A short description of series [7]: Aqueous solubility of compound in PBS at pH 7 by HPLC-UV analysis.
A short description of series [8]: in vitro. The conditions noted are these: rat.
Series [9] is described as follows: in vitro. The conditions noted are these: rat. The source holds these as a separate data set.
Series [10] can be described thus: Oral bioavailability in Sprague-Dawley rat at 5 mg/kg by LCMS analysis. The class given is ADME, organism-based. The conditions noted are these: in vivo.
The test system of series [11] is Human immunodeficiency virus 1. Briefly: Anti-viral activity against HIV1 harboring RT Y181C mutant infected […] cells assessed as protection against virus-induced cytopathic effect by MTT assay. The note with it: Human immunodeficiency virus 1, MT4. The class given is functional, organism-based.
For series [12], the system named is Human immunodeficiency virus 1. Briefly: Anti-viral activity against HIV1 harboring RT L100I mutant infected […] cells assessed as protection against virus-induced cytopathic effect by MTT assay. It is filed as functional, organism-based. The note with it: Human immunodeficiency virus 1, MT4.
Series [13] concerns Human immunodeficiency virus 1. The series is described as follows: Anti-viral activity against HIV1 harboring RT E138K mutant infected […] cells assessed as protection against virus-induced cytopathic effect by MTT assay. It is filed as functional, organism-based. The note with it: Human immunodeficiency virus 1, MT4.
The test system of series [14] is Human immunodeficiency virus 1. The series is described as follows: Anti-viral activity against HIV1 harboring RT Y188L mutant infected […] cells assessed as protection against virus-induced cytopathic effect by MTT assay. The conditions noted are these: Human immunodeficiency virus 1, MT4. The class given is functional, organism-based.
Series [15] concerns Human immunodeficiency virus 1. The series is described as follows: Anti-viral activity against HIV1 harboring RT K103N mutant infected […] cells assessed as protection against virus-induced cytopathic effect by MTT assay. The class given is functional, organism-based. The conditions noted are these: Human immunodeficiency virus 1, MT4.
Series [16] has as its target Human immunodeficiency virus type 1 reverse transcriptase (Human immunodeficiency virus 1, UniProt Q72547). The series is described as follows: Inhibition of recombinant wild-type HIV1 p66/p51 reverse transcriptase assessed as inhibition of [3H][…] incorporation using poly (rA) as templates incubated for 40 mins by spectrofluorometer.
Series [17] is described as follows: Stability in mouse liver microsome assessed as binding constant at 1 uM in presence of NADPH by LC/MS/MS analysis. It is filed as ADME. The conditions noted are these: microsomes.
Series [18] in a line: Acute toxicity in fasted mouse assessed as pathological changes in liver at 2 g/Kg, IG upto 2 weeks after 14 days by H and E staining based analysis. It is filed as tissue-based. The note with it: in vivo, po, 2000 mg/kg, 336 h.
A short description of series [19]: Acute toxicity in fasted mouse assessed as weight loss at 2 g/Kg, IG upto 2 weeks. The note with it: in vivo, po, 2000 mg/kg, 336 h.
Series [20] in a line: AUC (all) in Sprague-Dawley rat at 5 mg/kg, po by LCMS analysis. The class given is ADME, organism-based. The note with it: in vivo. Details: dose 5 mg/kg.
Series [21] can be described thus: Acute toxicity in fasted mouse assessed as pathological changes in heart at 2 g/Kg, IG upto 2 weeks after 14 days by H and E staining based analysis. The class given is tissue-based. The conditions noted are these: in vivo, po, 2000 mg/kg, 336 h.
Series [22] can be described thus: MRT (infinity) in Sprague-Dawley rat at 1 mg/kg, iv by LCMS analysis. It is filed as ADME, organism-based. The note with it: in vivo.
A short description of series [23]: in vitro. The note with it: human, liver microsomes. On the technique in general: Liver microsomes are vesicles of endoplasmic reticulum, rich in cytochrome P450 enzymes.
Series [24] is described as follows: Acute toxicity in fasted mouse assessed as pathological changes in spleen at 2 g/Kg, IG upto 2 weeks after 14 days by H and E staining based analysis. The class given is tissue-based. The note with it: in vivo, po, 2000 mg/kg, 336 h.
Series [25] in a line: AUC (infinity) in Sprague-Dawley rat at 5 mg/kg, po by LCMS analysis. The class given is ADME, organism-based. On the set-up: route oral, time infinity, dose 5 mg/kg. The conditions noted are these: in vivo.
Series [26] is described as follows: Half life in Sprague-Dawley rat at 1 mg/kg, iv by LCMS analysis. It is filed as ADME, organism-based. The conditions noted are these: in vivo.
A short description of series [27]: Intrinsic clearance in mouse liver microsome at 1 uM in presence of NADPH by LC/MS/MS analysis. It is filed as ADME. The note with it: liver microsomes, read-out: CLH.
A short description of series [28]: MRT (infinity) in Sprague-Dawley rat at 5 mg/kg, po by LCMS analysis. The conditions noted are these: in vivo. The class given is ADME, organism-based.
Series [29] can be described thus: Acute toxicity in fasted mouse assessed as behavioral changes at 2 g/Kg, IG upto 2 weeks. The conditions noted are these: in vivo, po, 2000 mg/kg, 336 h.
The nature of series [30]: Clearance in Sprague-Dawley rat at 1 mg/kg, iv. It is filed as ADME, organism-based. The conditions noted are these: in vivo.
The nature of series [31]: AUC (all) in Sprague-Dawley rat at 1 mg/kg, iv by LCMS analysis. The class given is ADME, organism-based. On the set-up: dose 1 mg/kg. The conditions noted are these: in vivo.
A short description of series [32]: Acute toxicity in fasted mouse assessed as pathological changes in kidney at 2 g/Kg, IG upto 2 weeks after 14 days by H and E staining based analysis. It is filed as tissue-based. The note with it: in vivo, po, 2000 mg/kg, 336 h.
Series [33] is described as follows: Cmax in Sprague-Dawley rat at 1 mg/kg, iv by LCMS analysis. It is filed as ADME, organism-based. On the set-up: route intravenous, dose 1 mg/kg. The note with it: in vivo.
Series [34] in a line: Tmax in Sprague-Dawley rat at 5 mg/kg, po by LCMS analysis. The class given is ADME, organism-based. The conditions noted are these: in vivo.
A short description of series [35]: Stability in mouse liver microsome assessed as half life at 1 uM in presence of NADPH by LC/MS/MS analysis. The class given is ADME. The conditions noted are these: liver microsomes.
A short description of series [36]: Acute toxicity in fasted mouse assessed as pathological changes in brain at 2 g/Kg, IG upto 2 weeks after 14 days by H and E staining based analysis. It is filed as tissue-based. The note with it: in vivo, po, 2000 mg/kg, 336 h.
A short description of series [37]: in vitro. The note with it: human, liver microsomes. The source holds these as a separate data set.
The nature of series [38]: Acute toxicity in fasted mouse assessed as mouse death at 2 g/Kg, IG. The conditions noted are these: in vivo, po, 2000 mg/kg.
The nature of series [39]: Acute toxicity in fasted mouse assessed as pathological changes in lung at 2 g/Kg, IG upto 2 weeks after 14 days by H and E staining based analysis. It is filed as tissue-based. The note with it: in vivo, po, 2000 mg/kg, 336 h.
A short description of series [40]: Half life in Sprague-Dawley rat at 5 mg/kg, po by LCMS analysis. It is filed as ADME, organism-based. The conditions noted are these: in vivo.
Series [41] in a line: AUC (infinity) in Sprague-Dawley rat at 1 mg/kg, iv by LCMS analysis. It is filed as ADME, organism-based. Details: route intravenous, time infinity, dose 1 mg/kg. The conditions noted are these: in vivo.
Series [42] in a line: Aqueous solubility of compound in PBS at pH 7.4 by HPLC-UV analysis.

For `Cc1cc(-c2ccc(C#N)cc2)cc(C)c1Nc1ccnc(Nc2ccc(C#N)cc2)n1`, the EC50 in series [1] amounted to 1 nM. For the same compound, the K in series [2] came out at 0.047 min⁻¹; in [3], 0.045 min⁻¹. Moreover, the selectivity ratio in series [4] is 2080. In [5], this compound showed a CC50 of 2100 nM.

In the case of `O=c1c2nc([N+](=O)[O-])cn2ccn1Cc1ccccc1`, the solubility result in series [6] (buffer) is recorded as “Insoluble”.

In [7] (PBS), `Cl.N#Cc1ccc(Nc2nccc(Nc3c(F)cc(-c4ccc(C#N)cc4)cc3F)n2)cc1` gave a solubility of 5.6 µg/mL.

As to `N#Cc1ccc(Nc2nccc(Nc3c(F)cc(-c4ccc(C#N)cc4)cc3F)n2)cc1`, the EC50 in series [1] came to 1 nM. The half-life at 1 µM in “in vitro [8]” (microsomes) was 44.3 min. In “in vitro [9]” (microsomes), this compound registered a microsomal CLint at 1 µM of 15.7 µL/min/mg. Also, the K was found to be 0.0219 min⁻¹ in series [2] and 0.0157 min⁻¹ in series [3]. Besides, the bioavailability in series [10] came out at 44%. This compound also showed a CC50 in series [5] of over 294000 nM.

Consider `N#Cc1ccc(Nc2nccc(Nc3c(F)cc(-c4ccnc(C#N)c4F)cc3F)n2)cc1`, for which the EC50 was determined as 2 nM in [1]; 42 nM in series [11]; 80 nM in series [12]; 11 nM in [13]; 18300 nM in series [14]; 14 nM in series [15]. Moreover, in [4], the selectivity ratio is over 143000. Also, in [16], the IC50 stood at 11 nM. Moreover, in series [5], the CC50 was over 282000 nM.

For the compound `Cl.N#Cc1ccc(Nc2nccc(Nc3c(F)cc(-c4ccncc4)cc3F)n2)cc1`, the K in series [17] worked out at 0.0259 min⁻¹; in series [2], 0.0142 min⁻¹; in [3] it was 0.0215 min⁻¹. For the same compound, the Activity entry in [18], in series [19], in series [21], in [24], in [29] and in series [32] was “Non-Toxic” throughout. For the same compound, the Activity entry in series [36], in series [38] and in series [39] was “Non-Toxic” throughout. For the same compound, the figures for the AUC in series [20] and in series [31] were 3340 ng·h/mL and 526 ng·h/mL, respectively. Moreover, the MRT inf was found to be 50.4 min in [22] and 101 min in series [28]. The results for the half-life at 1 µM (in “in vitro [23]”; in the series “in vitro [8]” (liver microsomes); in series [35]) were 49 min, 32 min and 27 min, respectively. In addition, the figures for the AUC(0-inf) in series [25] and in [41] were 3350 ng·h/mL and 531 ng·h/mL, respectively. For the same compound, the half-life in series [26] is 45.6 min; in series [40], 50.4 min. The microsomal CLint at 1 µM in series [27] is 52 µL/min/mg; in “in vitro [37]”, 28 µL/min/mg; in “in vitro [9]” (liver microsomes) it was 43 µL/min/mg. This compound showed a clearance in series [30] of 32 mL/min/kg. Moreover, the Cmax in series [33] came out at 1370 ng/mL. Also, the Tmax in series [34] was 34.8 min. For the same compound, the bioavailability in series [10] amounted to 126%.

For `O=c1c2nc([N+](=O)[O-])cn2ccn1Cc1cccnc1`, in series [6] (PBS, read-out: solubility), the solubility was over 200 µM.

Regarding `Cc1cc(C#N)cc(C)c1Oc1nc(Nc2ccc(C#N)cc2)nc(N)c1Br` [ETRAVIRINE], the solubility in series [42] (PBS) and in series [7] (PBS) was under 1 µg/mL throughout. In addition, the EC50 amounted to 29.3 nM in [14] and 3.4 nM in [15]. The CC50 in series [5] was over 4600 nM.

For `Cc1cc(/C=C/C#N)cc(C)c1Nc1ccnc(Nc2ccc(C#N)cc2)n1.Cl` [RILPIVIRINE HYDROCHLORIDE], in series [10], the bioavailability came out at 32%.

For `Cc1cc(/C=C/C#N)cc(C)c1Nc1ccnc(Nc2ccc(C#N)cc2)n1` [RILPIVIRINE], the solubility in series [42] (buffer) and in [7] (buffer) was under 1 µg/mL in each case.

The EC50 is the concentration at which the effect is half-maximal. The term CC50 denotes the concentration giving 50% cytotoxicity. Read a low CC50 as greater toxicity to the cells. Broadly, the solubility is the dissolved amount per volume that the medium holds. What is called half-life is how long it takes for the measured level to halve. By IC50 is commonly meant the concentration that gives 50% inhibition. For orientation: AUC means concentration integrated over time. One may read the MRT inf as the average time that molecules of a dose stay in the body. By AUC(0-inf) is commonly meant the area under the concentration-time curve extrapolated to infinity. The low end stands for less exposure, the high end for more exposure. For orientation: clearance means a measure of how efficiently the substance is removed, as volume per time. As usually defined, the Cmax is the peak of the concentration-time curve. Usually Tmax stands for the time from dosing to the highest level.
